Here are results for 48 compounds from publication PMC7251097, “Aspartate/asparagine-β-hydroxylase: a high-throughput mass spectrometric assay for discovery of small molecule inhibitors” (Scientific Reports, 2020).

Counter-ions that a name gives are not always drawn. Like-named read-outs stand apart in the source and are kept apart here.

The target in this test is T1, His6-AspH315–758 (human aspartate/asparagine-β-hydroxylase, AspH) (Homo sapiens, UniProt Q12797).
T1 construct: N-Terminally His6-tagged human AspH315–758 (His6-AspH315–758) was produced in E. coli BL21 (DE3) cells; made in house; host or cells: E. coli BL21 (DE3), pET-28a(+) vector
T1 sequence (Q12797 315-758): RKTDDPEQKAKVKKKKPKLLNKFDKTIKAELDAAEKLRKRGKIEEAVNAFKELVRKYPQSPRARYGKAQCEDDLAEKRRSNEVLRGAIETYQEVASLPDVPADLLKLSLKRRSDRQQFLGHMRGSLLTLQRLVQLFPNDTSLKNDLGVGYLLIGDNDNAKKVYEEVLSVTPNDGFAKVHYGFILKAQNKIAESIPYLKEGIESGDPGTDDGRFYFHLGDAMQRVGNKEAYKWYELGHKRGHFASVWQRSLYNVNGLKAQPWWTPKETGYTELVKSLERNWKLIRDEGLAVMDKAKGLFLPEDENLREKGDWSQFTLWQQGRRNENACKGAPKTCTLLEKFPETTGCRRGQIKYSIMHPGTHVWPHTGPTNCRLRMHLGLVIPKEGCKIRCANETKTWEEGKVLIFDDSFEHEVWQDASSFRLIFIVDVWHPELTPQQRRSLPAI
Briefly: SPE-MS AspH inhibition assay (LOPAC screen at fixed 20 μM and IC50 dose-response), hydroxylation of cyclic peptide hFX-CP101–119. It is filed as biochemical.

[1] abbreviates: LOPAC compound at 20uM, plate 2, conversion of substrate peptide.
Setting [2] is: LOPAC compound at 20uM, plate 2, normalised to DMSO and 2,4-PDCA controls, read-out: Plate 2 (% inhibition).
Where [3] appears, read: LOPAC compound at fixed 20 uM, plate 1, normalised to DMSO and 2,4-PDCA controls.
Setting [4] is: LOPAC compound at fixed 20 uM, substrate conversion, plate 1.
Where [5] appears, read: LOPAC Plate 4, compound at 20 uM.
Where [6] appears, read: LOPAC Plate 4, compound at 20 uM, substrate conversion.
Setting [7] is: LOPAC compound at 20uM, plate 2, normalised to DMSO and 2,4-PDCA controls.
The mark [8] stands for this setting: LOPAC Plate 4, compound at 20 uM, read-out: % inhibition.
The mark [9] stands for this setting: LOPAC compound at 20uM, plate 3, conversion of substrate peptide.
The mark [10] stands for this setting: plate 5 (Pfitzer), test compounds at fixed 20 μM.
The mark [11] stands for this setting: plate 5 (Pfitzer), test compounds at fixed 20 μM, mean conversion DMSO 32.88.

Usually inhibition stands for the change of the read-out against control, counted positive when it falls. For the compound `O=C1NC(=O)C(c2ccccc2)(c2ccccc2)N1` [5,5-Diphenylhydantoin], the “Plate 2 (% conversion)” value under setting [1] is 35.84%. Further, the inhibition at 20 µM under setting [2] was 0.33%.
For `C=CCc1ccccc1OCC(O)CNC(C)C` (centres unmarked) [Alprenolol hydrochloride], the “Plate 1 (% inhibition)” value under setting [3] is listed as -9.33%. The “Plate 1 (% conversion)” value under setting [4] is recorded as 39.00%.
A word on the % inhibition: it is the relative decrease from the control value, in per cent. On to `O=C(O)/C=C\C(=O)O.c1cnc(N2CCN(Cc3ccc4c(c3)OCO4)CC2)nc1` [Piribedil maleate], for which the “% inhibition” value under setting [5] is given as -4.83%. For the same compound, the “% conversion” value under setting [6] worked out at 38.12%.
For `C[N+](C)(C)CCO.[Br-]` [Choline bromide], the “Plate 1 (% conversion)” value turned out to be 37.78% and the “Plate 1 (% inhibition)” value is -5.68%.
With `Oc1cc(-c2ccccc2)nc2nc(Cl)ccc12`, the “Plate 1 (% conversion)” value was determined as 39.07% and the “Plate 1 (% inhibition)” value is -9.52%.
For the compound `COc1ccc(/C=C/C(=O)Nc2ccccc2C(=O)O)cc1OC` [Tranilast], under setting [6], the “% conversion” value was determined as 35.26%.
Take `COc1cc(NS(C)(=O)=O)ccc1Nc1c2ccccc2nc2ccccc12` [Amsacrine hydrochloride]: the “Plate 1 (% inhibition)” value under setting [3] is given as -10.85%. Also, under setting [4], the “Plate 1 (% conversion)” value came out at 39.52%.
Consider `CCCCCCCC/C=C\CCCCCCCC(=O)NCCc1ccc(O)c(O)c1` [N-Oleoyldopamine], for which the “% inhibition” value under setting [5] is recorded as 94.15%. In addition, the “% conversion” value under setting [6] amounted to 4.34%.
With `CCCCC1(C2CCCC2)Cc2cc(OCC(=O)O)c(Cl)c(Cl)c2C1=O` (stereo in doubt) [R(+)-Butylindazone], the “Plate 2 (% conversion)” value under setting [1] turned out to be 33.18%. Further, the “Plate 2 (% inhibition)” value under setting [7] was 8.29%.
For the compound `C#CCOC(=O)C1=CCCN(C)C1` [Arecaidine propargyl ester hydrobromide], the “Plate 1 (% conversion)” value amounted to 37.75% and the “Plate 1 (% inhibition)” value is recorded as -5.59%.
As for `CNC(=C[N+](=O)[O-])NCCSCc1ccc(CN(C)C)o1` [Ranitidine hydrochloride], the “% conversion” value under setting [6] was found to be 37.20%. In addition, the inhibition at 20 µM under setting [8] was -2.13%.
`Cl.NCCc1ccc(O)cc1` [4-Hydroxyphenethylamine hydrochloride]: the “% inhibition” value under setting [5] was -7.46%. Besides, under setting [6], the “% conversion” value is 39.01%.
Turning to `COc1cc([C@@H]2c3cc4c(cc3[C@H](O)[C@H]3COC(=O)[C@H]23)OCO4)cc(OC)c1OC` [Podophyllotoxin], the “Plate 3 (% conversion)” value was found to be 35.15%.
Consider `C[N+]1(C)C2CCC1CC(OC(=O)c1c[nH]c3ccccc13)C2.[I-]` (centres unmarked), for which, under setting [6], the “% conversion” value turned out to be 36.85%.
On to `CCN(CC)CC#CCOC(=O)C(O)(c1ccccc1)C1CCCCC1` (centres unmarked) [Oxybutynin Chloride], for which, under setting [9], the “Plate 3 (% conversion)” value is on record as 40.48%.
On the same count and under the same terms, with `Cc1ccc(Cl)c(Nc2ccccc2C(=O)O)c1Cl` [Meclofenamic acid sodium] the figure was 31.27%.
As to `CN1CCC[C@@H]1Cc1c[nH]c2ccc(Nc3ncccc3[N+](=O)[O-])cc12` [CP-135807], the “% conversion” value was determined as 37.42%, the “Plate 5 (% conversion)” value came out at 32.28% and the “Plate 5 (% inhibition)” value turned out to be 11.85%.
Turning to `C[N+](C)(C)CC(=O)O` [Betaine hydrochloride], under setting [3], the “Plate 1 (% inhibition)” value is -4.44%. Besides, the “Plate 1 (% conversion)” value under setting [4] is recorded as 37.36%.
As to `CCOC(=O)N1c2ccc(C(F)(F)F)cc2[C@@H](N(Cc2cc(C(F)(F)F)cc(C(F)(F)F)c2)C(=O)OC)C[C@H]1CC` [Torcetrapib], the “Plate 5 (% inhibition)” value under setting [10] is reported as 13.93%. Under setting [11], the “Plate 5 (% conversion)” value came to 31.57%.
For `C[C@H]1CCC/C=C/[C@@H]2C[C@H](O)C[C@H]2[C@H](O)/C=C/C(=O)O1`, the “Plate 1 (% conversion)” value turned out to be 38.82% and the “Plate 1 (% inhibition)” value was -8.79%.
Turning to `O=c1c(-c2ccc(O)cc2)coc2cc(O)cc(O)c12` [Genistein], the “Plate 2 (% conversion)” value under setting [1] came to 19.78%. Under setting [2], the inhibition at 20 µM came out at 48.3%.
As to `C=CCNc1ncnc2ccc(Br)cc12` [SMER28], the “% conversion” value under setting [6] worked out at 30.76%.
In the case of `Br.Br.N=C(N)SCCN`, under setting [3], the “Plate 1 (% inhibition)” value was -13.77%. Besides, under setting [4], the “Plate 1 (% conversion)” value is 40.50%.
For the compound `Fc1ccc2[nH]c(CN3CCN(c4ccccn4)CC3)cc2c1` [CP-226269], the “% conversion” value was determined as 39.74%, the “Plate 5 (% conversion)” value is 37.75% and the “Plate 5 (% inhibition)” value was -4.22%.
For trans-(±)-ACPD, the “Plate 1 (% conversion)” value is given as 37.46% and the “Plate 1 (% inhibition)” value is given as -4.72%.
Regarding `CCN1CCCC1CNC(=O)c1cc(S(=O)(=O)CC)c(N)cc1OC` (centres unmarked) [Amisulpride], the “% conversion” value under setting [6] was 40.99%. The inhibition at 20 µM under setting [8] was -13.2%.
`NC12CC3CC(CC(C3)C1)C2` [Amantadine hydrochloride]: the “Plate 1 (% inhibition)” value under setting [3] is -1.83%. Moreover, the “Plate 1 (% conversion)” value under setting [4] was determined as 36.49%.
As to `CCCCNc1ccc(C(=O)OCCN(C)C)cc1` [Tetracaine hydrochloride], the “% conversion” value under setting [6] stood at 40.45%. Also, under setting [8], the inhibition at 20 µM was -11.7%.
The term IC50 denotes the point on the concentration scale where inhibition reaches its midpoint. With `O=C(O)c1ccc(-n2nc(-c3ccccc3O)nc2-c2ccccc2O)cc1` [Deferasirox, reference compound], the IC50 (50 nM His6-AspH315–758, 1.0 μM hFX-CP101–119, 3 μM 2OG, 2 μM Fe(II), 50 mM HEPES pH 7.5, 20 °C, mean ± SD, n = 2 (2,4-PDCA n = 10), read-out: IC50) worked out at 2.08 ± 0.81 µM.
On to `O=C1NC(=O)[C@@]2(CCOc3ccc(F)cc32)N1` [Sorbinil], for which, under setting [3], the “Plate 1 (% inhibition)” value is listed as -13.94%. Further, the “Plate 1 (% conversion)” value under setting [4] is 40.55%.
For the compound `NC(=O)c1cnccn1` [Pyrazinecarboxamide], under setting [6], the “% conversion” value turned out to be 32.31%.
Take `CC(=O)C(C)=O` [2,3-Butanedione]: the “Plate 2 (% conversion)” value under setting [1] stood at 38.17%. Further, the inhibition at 20 µM under setting [2] was -6.62%.
As for `CNCC(O)c1ccc(O)c(O)c1.Cl` (racemic) [(±)-Epinephrine hydrochloride], under setting [1], the “Plate 2 (% conversion)” value was 6.18%. Besides, the “Plate 2 (% inhibition)” value under setting [7] stood at 88.94%.
With `Cl.OC1CCCCC1N1CCC(c2ccccc2)CC1` (racemic) [(±)-Vesamicol hydrochloride], the “% conversion” value was 40.91%. Also, the “% inhibition” value (20 µM) is reported as -13.00%.
As for `CCOC(=O)Nc1ccc(NCc2ccc(F)cc2)nc1N` [Flupirtine maleate], the “Plate 2 (% conversion)” value under setting [1] amounted to 33.85%. Also, under setting [2], the inhibition at 20 µM was determined as 6.29%.
With `Brc1c(NC2=NCCN2)ccc2nccnc12` [UK 14,304], the “% conversion” value worked out at 39.75%. Further, the “% inhibition” value (20 µM) is -9.62%.
Consider `CCc1cncnc1N1CCN(Cc2nc3ccc(C(F)(F)F)cc3[nH]2)CC1` [PF-4708671], for which the “% conversion” value under setting [6] amounted to 41.30%. In addition, the “Plate 5 (% inhibition)” value under setting [10] turned out to be 2.08%. Further, the “Plate 5 (% conversion)” value under setting [11] was determined as 35.61%.
In the case of `CNc1ccc2oc(C[C@H]3O[C@@]4(CC[C@H]3C)O[C@H]([C@H](C)C(=O)c3ccc[nH]3)[C@H](C)C[C@H]4C)nc2c1C(=O)O` [Calcimycin, calcimycin, reference compound], the “Plate 1 (% conversion)” value is reported as 2.02%. This compound yielded a half-maximal inhibitory concentration (IC50) (IC50 [μM]) of 4.19 ± 0.1 µM. Also, where the note is “read-out: Inhibition at 20 µM [%]”, the inhibition at 20 µM was determined as 101%.
Turning to `N[C@H](C(=O)O)[C@H](O)c1ccc(O)c(O)c1` [L-DOPS], under setting [9], the “Plate 3 (% conversion)” value was 7.53%.
Take 5-Bromo-2-deoxyuridine: the “Plate 1 (% conversion)” value is 35.50% and the “Plate 1 (% inhibition)” value came to 1.12%.
The like results for `NC(N)=NOCC[C@H](N)C(=O)O.O=S(=O)(O)O` [L-Canavanine sulfate] were, in that order, 38.13% and -6.73%.
With `N#Cc1cc([N+](=O)[O-])c2sc(C(N)=O)[n+]([O-])c2c1` [BTO-1], the “Plate 1 (% inhibition)” value under setting [3] is given as -2.18%. Besides, the “Plate 1 (% conversion)” value under setting [4] worked out at 36.60%.
Regarding `CC(CN1c2ccccc2Sc2ccccc21)N(C)C` (centres unmarked) [Promethazine hydrochloride], under setting [9], the “Plate 3 (% conversion)” value is 42.09%.
`O=C(NCCN1CCOCC1)c1ccc(Cl)cc1` [Moclobemide]: the “Plate 3 (% conversion)” value under setting [9] stood at 38.98%.
A word on the Inhibition: it is the drop in the measured response relative to a control, in per cent. For `NC(Cc1cc(O)c(O)cc1O)C(=O)O` (racemic) [6-Hydroxy-DL-DOPA, reference compound], the “Inhibition at 20 µM [%]” value is listed as 103.1% and the “Plate 2 (% conversion)” value worked out at 1.44%. The “Plate 2 (% inhibition)” value (20 µM) worked out at 103.09%.
`COc1cc(OC)cc(-c2cc3cnc(N)nc3nc2NC(=O)NC(C)(C)C)c1` [PD-166866]: the “% conversion” value under setting [6] was 36.54%. Besides, the “Plate 5 (% inhibition)” value under setting [10] was -5.94%. In addition, the “Plate 5 (% conversion)” value under setting [11] is reported as 38.34%.
As for `Cc1ccc(=O)n(-c2ccccc2)c1` [Pirfenidone], under setting [9], the “Plate 3 (% conversion)” value was found to be 40.30%.
With `CC(=O)O[C@H]1C[C@@H]2CC[C@@H]3[C@H](CC[C@@]4(C)[C@H]3C[C@H]([N+]3(C)CCCCC3)[C@@H]4OC(C)=O)[C@@]2(C)C[C@@H]1[N+]1(C)CCCCC1` [Pancuronium bromide], the “Plate 3 (% conversion)” value stood at 37.93%.
